Measured values reported in ChEMBL document CHEMBL3244261, “3-hydroxyisoxazole-5-hydroxamic acid” (1977).
Calls of active or inactive are those of the source. The calls are words filed in the database; no cut-off is given here.

Tests used:
[1] = test system: L1210; assay: Antitumor activity against mouse L1210 cells allografted in mouse at 100 mg/kg; assay type: functional, organism-based; parameters: dose 100 mg/kg
[2] = test system: P388; assay: Antitumor activity against mouse P388 cells allografted in mouse assessed as tumor growth inhibition at 100 mg/kg relative to control; assay type: functional

Structure (SMILES) | Activity [1] | T/C [2] [%]
O=C(NO)c1cc(O)no1 | inactive | 
O=C(/C=C(\Cl)C(=O)NO)NO | inactive | 154
